Results on two molecules are retold here after US9657057B2, “Dipeptide and tripeptide epoxy ketone protease inhibitors” (Onyx Therapeutics, Inc., priority 2013, dated 2017).

Data set [1] addresses T1, LMP2 (Homo sapiens, UniProt P28065+P40306).
T1 construct: endogenous in cells; host or cells: MOLT-4
Kind of data set: ProCISE proteasome subunit assay, LMP2. It counts as biochemical. The method, then: (§1) This assay was used to assess the inhibitory activity against each of LMP2, LMP7, MECL1, β1, β2, and β5. Briefly, test compounds were serially diluted in DMSO at 100× concentration, then diluted to 10× in aqueous hypotonic lysis buffer. Lysate from the human acute lymphoblastic leukemia cell line, MOLT-4, was treated for 1 hour at 25° C. with compound at a final 1× concentration. […] Following this, lysate was denatured in guanidine hydrochloride, and subunits bound to probe were isolated with streptavidin-conjugated sepharose beads. Individual subunits were probed with subunit-specific primary antibodies, followed by HRP-conjugated secondary antibodies. A chemiluminescent substrate was used to generate signal associated with HRP binding, which was detected on a plate reader. Luminescent signal was normalized to protein content, then, percent activity calculated relative to DMSO-treated controls to generate IC50 curves.

The target in data set [2] is i20S (20S immunoproteasome) (Homo sapiens, UniProt P20618+P28062). Kind of data set: 20S proteasome assay, chymotrypsin-like activity (LLVY), i20S. It counts as biochemical. The following applies: LLVY i20S Hu 1 h CONT: IC50 (nM), succinyl-Leu-Leu-Val-Tyr-AMC. The text has this:
(§2) Assay buffer consisted of TE buffer [20 mmol/L Tris (pH 8.0), 0.5 mmol/L EDTA] with (20S) or without (cell lysate) 0.03% SDS. Reactions were initiated by enzyme or lysate addition and monitored for AMC product formation at 27jC with a plate-based spectofluorometer (Tecan).

Data set [3] deals with T2, β5 (Homo sapiens, UniProt P20618+P28074).
T2 construct: endogenous in cells; host or cells: MOLT-4
Kind of data set: ProCISE proteasome subunit assay, β5. The settings on record: MOLT4 lysate Hu 1 h. It counts as biochemical. A digest of the protocol: (§3)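 MOLT-4 cell lysate was incubated with compound for 1 h at 25° C, then a subunit-binding probe was applied; probe-bound subunits were pulled down on streptavidin beads after guanidine denaturation and detected with subunit-specific antibodies by HRP chemiluminescence. Signal was normalized to protein and expressed as percent of DMSO control to fit IC50.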

In data set [4] the target is c20S (constitutive 20S proteasome) (Homo sapiens, UniProt P20618+P28074). Kind of data set: 20S proteasome assay, chymotrypsin-like activity (LLVY), c20S. It counts as biochemical. The settings on record: LLVY c20S Hu 1 h CONT: IC50 (nM), succinyl-Leu-Leu-Val-Tyr-AMC.
From the text: as §2

Data set [5] deals with T3, LMP7 (Homo sapiens, UniProt P20618+P28062).
T3 construct: endogenous in cells; host or cells: MOLT-4
Put plainly: ProCISE proteasome subunit assay, LMP7. The settings on record: MOLT4 lysate Hu 1 h. It counts as biochemical. In a few lines:
as §3

The nature of data set [6]: Solubility pH 7. Type of data set: physicochemical. The settings on record: pH 7, aqueous buffer.
The target in data set [7] is MECL1 (Homo sapiens, UniProt P40306+P49720). Kind of data set: ProCISE proteasome subunit assay, MECL1. Type of data set: biochemical. The following applies: MOLT-4 lysate, 1 hour at 25° C. The method, then:
as §1

Data set [8] deals with β2 (Homo sapiens, UniProt P49720+Q99436). Kind of data set: ProCISE proteasome subunit assay, β2. Type of data set: biochemical. The following applies: MOLT-4 lysate, 1 hour at 25° C. The method, then: as §1
Data set [9] concerns the target β1 (Homo sapiens, UniProt P28072+Q99436). Put plainly: ProCISE proteasome subunit assay, β1. Type of data set: biochemical. The settings on record: MOLT-4 lysate, 1 hour at 25° C. The method, then:
as §1

Values after ≈ are worked out from the molar mass of the structure shown. Like-named read-outs stand apart in the source and are kept apart here.

Broadly, the solubility is the concentration that dissolves in the medium under given conditions. A high value points to much dissolved substance.

Take `COc1ccc(C[C@H](NC(=O)[C@@H](C)NC(=O)c2ncc[nH]2)C(=O)N[C@@H](CC2CCCC2)C(=O)[C@@]2(C)CO2)cc1` [Compound C-2034, N—((R)-1-(((S)-1-(((S)-3-cyclopentyl-1-((R)-2-methyloxiran-2-yl)-1-oxopropan-2-yl)amino)-3-(4-methoxyphenyl)-1-oxopropan-2-yl)amino)-1-oxopropan-2-yl)-1H-imidazole-2-carboxamide]: the IC50 in data set [1] (MOLT4 lysate Hu 1 h) was 471 nM; in [2], 19500 nM; in [3], over 250 µM; in data set [4], 64400 nM; in [5] it was 19.7 µM. In [6], this molecule had a solubility of 55.5 µg/mL (≈ 103 µM).
With `COc1ccc(C[C@H](NC(=O)c2cccc(=O)[nH]2)C(=O)N[C@@H](Cc2ccccc2)C(=O)[C@@]2(C)CO2)cc1` [Compound C-3008, N—((S)-3-(4-Methoxyphenyl)-1-(((S)-1-((R)-2-methyloxiran-2-yl)-1-oxo-3-phenylpropan-2-yl)amino)-1-oxopropan-2-yl)-6-oxo-1,6-dihydropyridine-2-carboxamide], the IC50 in [1] (ProCISE LMP2 MOLT4 lysate Hu 1 h CONT: IC50 (nM), MOLT4 lysate Hu 1 h) is 109 nM; in [1] (ProCISE, MOLT-4 lysate, 1 hour at 25° C., read-out: LMP2), 109 nM; in data set [7], over 250 µM; in [8], over 250 µM; in [9], 99.2 µM.
